Measurements as given in patent publication US10947196B2, “Beta adrenergic agonist and methods of using the same” (CURASEN THERAPEUTICS, INC., priority 2019, dated 2021).
Read-outs that look alike come from different tables or passages of the source.

Tests used:
Format in all cases: cell-based
β1-adrenergic receptor = β1-adrenergic receptor (Homo sapiens (Human), UniProt P08588); test: cAMP Gs dynamic HTRF assay, β1 expressing CHO cells; details: B1-AR
Outline: (§1)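 Intracellular cAMP quantified by Eu-donor/d2-acceptor HTRF after 30 min compound exposure at 37° C in stimulation buffer with IBMX. Concentrations ran 10 μM top, 5-fold steps, 10 points. Cell lines: 1321N1 astrocytoma and CHO expressing β1 or β2; EC50 via four-parameter fit, relative efficacy against isoproterenol.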

[1] = target: β2 adrenergic receptors in human astrocytoma cells (1321N1) (Homo sapiens (Human), UniProt P07550); test: cAMP HTRF assay in human astrocytoma cells (1321N1)
Method: cAMP homogeneous time-resolved fluorescence (HTRF). Compound efficacy was determined using the cAMP Gs dynamic HTRF assay (Cisbio, catalog #62AM4PEC) largely following the manufacturer's instructions, also detailed below.
Compound preparation. […] Standard serial dilution curves were 10-point, 5-fold dilutions starting from a highest concentration of 10 μM. […] Assay plates were centrifuged at 500×g for 10 seconds. Compounds and IBMX were prepared at 2× final dose to compensate for addition of cells.
Cell preparation. 1× stimulation buffer, washing PBS (Dulbecco's phosphate-buffered saline, −Mg −Ca; Caisson Labs, catalog #PBL01), assay PBS (Dulbecco's phosphate-buffered saline, +Mg, +Ca; Caisson Labs, catalog #PBL02) and Versene (0.02% EDTA disodium salt solution in PBS without calcium or magnesium; Caisson Labs, catalog #EDL01) were pre-warmed to 37° C. Cells expressing beta-adrenergic receptor were washed in washing PBS to remove growth medium and then released from the surface by incubating with Versene for 5-10 minutes at 37° C. Cells were harvested using assay PBS, counted manually by hemocytometer or by an automated cell counter, pelleted by centrifugation (200×g, 5 minutes) and resuspended in 37° C. 1× stimulation buffer to a final density of 1.5×10^6 cells/mL. 5 μL of the suspended cell solution (7500 cell total) were added to all wells of the 384 well assay plate, the assay plate was covered with an Axygen® plate seal (Corning PCR-SP) and incubated in a humidified 37° C. environment supplemented with 5% CO2 for 30 minutes.
HTRF reagent addition, reading and data analysis. After 30 minutes of cell stimulation with test compound, the assay plates were centrifuged at 500×g for 10 seconds, and incubation was stopped with the addition of 5 μL cAMP-D2 acceptor, diluted 1:21 in detection and lysis buffer 2 (Cisbio 62CL2FDF) was added to all cells. Subsequently, 5 μL Anti-cAMP-Eu Donor, diluted 1:21 in detection and lysis buffer 2, was added to cells. Plates were sealed and reactions gently ‘vortexed’ at 900 rpm on a Heidolph Titramax 1000 for at least 30 minutes at room temperature. Plates were centrifuged again at 500×g for 10 seconds, and HTRF was measured using a Tecan Spark plate reader at 50 flashes per well. […] Potency estimates (EC50) were derived from the four-parameter nonlinear regression of the concentration-effect curve and an estimate of relative efficacy was determined by comparing the magnitude of the test compound HTRF signal window (min−max dose) with the signal window of the full agonist control, isoproterenol.

β2 adrenergic receptor = β2 adrenergic receptor (Homo sapiens (Human), UniProt P07550); test: cAMP Gs dynamic HTRF assay, β2 expressing CHO cells; details: B2-AR
Outline: as §1

[2] = CHO-K1 (HitHunter), read-out: Average pEC50 [Receptor subtype: B1-AR, Cell type: CHO-K1 (HitHunter)] (converted)
[3] = CHO-K cells, read-out: Average EC50 [Receptor subtype: B1-AR, Cell type: CHO-K]
[4] = Endogenous receptor, 1321N1 cells, read-out: Average pEC50 [Receptor subtype: Endogenous, Cell type: 1321N1] (converted)
[5] = CHO-K1 (HitHunter), read-out: Average pEC50 [Receptor subtype: B2-AR, Cell type: CHO-K1 (HitHunter)] (converted)
[6] = CHO-K cells, read-out: Average EC50 [Receptor subtype: B2-AR, Cell type: CHO-K]
[7] = Average pEC50 [Receptor subtype: B1-AR, Cell type: CHO-K1 (HitHunter)], CHO-K1 (HitHunter)
[8] = Average pEC50 [Receptor subtype: B2-AR, Cell type: CHO-K1 (HitHunter)], CHO-K1 (HitHunter)

Chain of β2 adrenergic receptors in human astrocytoma cells (1321N1) (P07550 whole entry): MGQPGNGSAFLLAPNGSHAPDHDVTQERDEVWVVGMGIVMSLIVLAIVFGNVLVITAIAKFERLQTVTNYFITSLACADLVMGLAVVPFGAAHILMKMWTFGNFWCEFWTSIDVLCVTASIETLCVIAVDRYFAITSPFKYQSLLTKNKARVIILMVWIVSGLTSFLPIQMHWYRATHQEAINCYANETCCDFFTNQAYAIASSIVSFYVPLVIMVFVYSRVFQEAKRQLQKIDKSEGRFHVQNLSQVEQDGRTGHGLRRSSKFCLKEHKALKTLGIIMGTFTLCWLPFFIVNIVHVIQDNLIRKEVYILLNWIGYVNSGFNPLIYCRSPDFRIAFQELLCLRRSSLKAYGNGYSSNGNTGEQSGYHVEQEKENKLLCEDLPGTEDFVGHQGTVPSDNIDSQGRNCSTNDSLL
Chain of β2 adrenergic receptor (P07550 whole entry, species assumed): as the sequence (P07550 whole entry) above
Chain of β1-adrenergic receptor (P08588 whole entry, species assumed): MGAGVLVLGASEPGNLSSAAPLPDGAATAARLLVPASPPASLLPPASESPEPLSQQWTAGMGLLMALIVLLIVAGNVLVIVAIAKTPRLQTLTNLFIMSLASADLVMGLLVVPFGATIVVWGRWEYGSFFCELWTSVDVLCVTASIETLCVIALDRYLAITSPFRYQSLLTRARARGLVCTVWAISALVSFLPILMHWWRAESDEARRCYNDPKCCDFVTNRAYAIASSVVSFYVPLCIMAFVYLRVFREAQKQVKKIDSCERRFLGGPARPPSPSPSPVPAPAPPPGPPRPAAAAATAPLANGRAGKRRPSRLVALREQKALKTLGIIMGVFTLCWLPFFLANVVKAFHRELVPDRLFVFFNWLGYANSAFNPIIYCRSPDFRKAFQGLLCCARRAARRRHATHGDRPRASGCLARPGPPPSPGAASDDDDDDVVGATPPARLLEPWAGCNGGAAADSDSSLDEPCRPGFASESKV

Structure (SMILES)	EC50 (β1-adrenergic receptor; [2])	EC50 [1, 4]	EC50 (β2 adrenergic receptor; [5])	also measured
Cc1cccc([C@@H](O)CNC(C)(C)C)n1 [Compound 03-6]	10 to 100 nM	100 to 1000 nM	10 to 100 nM	EC50 (β1-adrenergic receptor; [3]): 10 to 100 nM; EC50 (β2 adrenergic receptor; [6]): 10 to 100 nM
CC(C)(C)NC[C@H](O)c1cccnc1C1CC1 [Compound 03-54]	100 to 1000 nM	–	10 to 100 nM	EC50 (β1-adrenergic receptor; [3]): 100 to 1000 nM; Average pEC50 [Receptor subtype: Endogenous; Cell type: 1321N1] ([1]; Endogenous receptor, 1321N1 cells): C (C = <7-6); EC50 ([1]; Endogenous receptor, 1321N1 cells, read-out: Average EC50 [Receptor subtype: Endogenous, Cell type: 1321N1]): 100 to 1000 nM; EC50 (β2 adrenergic receptor; [6]): 10 to 100 nM
COc1ccc(C[C@@H](C)NC[C@H](O)c2cccnc2C2=CCCC2)cc1 [Compound 03-63]	–	–	–	EC50 (β1-adrenergic receptor; [7]): > 1000 nM; EC50 [1]: > 1000 nM; EC50 (β2 adrenergic receptor; [8]): 100 to 1000 nM
COc1ccc(C[C@@H](C)NC[C@H](O)c2cccnc2C2CCCC2)cc1 [Compound 03-64]	–	–	–	EC50 (β1-adrenergic receptor; [7]): > 1000 nM; EC50 [1]: 100 to 1000 nM; EC50 (β2 adrenergic receptor; [8]): 100 to 1000 nM
COc1ccc(C[C@@H](C)NC[C@H](O)c2cccnc2C)cc1 [Compound 03-66]	10 to 100 nM	100 to 1000 nM	< 10 nM	–
Cc1ccc([C@@H](O)CNC(C)(C)C)c(C)n1 [Compound 03-67]	100 to 1000 nM	10 to 100 nM	< 10 nM	–
CC(C)(C)NC[C@H](O)c1cccnc1OC(F)(F)F [Compound 03-70]	100 to 1000 nM	10 to 100 nM	10 to 100 nM	–
CC(C)(C)NC[C@H](O)c1cccnc1OC1CC1 [Compound 03-71]	100 to 1000 nM	10 to 100 nM	10 to 100 nM	–
CC(C)(C)NC[C@H](O)c1cccnc1OC1CCC1 [Compound 03-72]	10 to 100 nM	10 to 100 nM	< 10 nM	–
CC(C)(C)NC[C@H](O)c1cc(F)cnc1C1CCCC1 [Compound 03-80]	> 1000 nM	100 to 1000 nM	10 to 100 nM	–
CC(C)(C)NC[C@H](O)c1cc(F)cnc1C1=CCCC1 [Compound 03-89]	> 1000 nM	> 1000 nM	100 to 1000 nM	–
CC(C)(C)NC[C@H](O)c1cccc(-c2ccc[nH]2)n1 [Compound 03-95]	< 10 nM	< 10 nM	< 10 nM	–
CC(C)(C)NC[C@H](O)c1cccc(-n2nccn2)n1 [Compound 03-101]	> 1000 nM	100 to 1000 nM	10 to 100 nM	–
CC(C)(C)NC[C@H](O)c1cccc(-n2ccnn2)n1 [Compound 03-102]	100 to 1000 nM	10 to 100 nM	10 to 100 nM	–
CC(C)(CO)NC[C@H](O)c1cccc(C#N)n1 [Compound 03-104]	100 to 1000 nM	100 to 1000 nM	100 to 1000 nM	–
CC(C)(C)NC[C@@H](O)c1ccnc(C#N)c1 [Compound 03-111]	> 1000 nM	100 to 1000 nM	10 to 100 nM	–
CC(C)(C)NC[C@H](O)c1cccc(C2CCOCC2)n1 [Compound 03-121]	100 to 1000 nM	< 10 nM	< 10 nM	EC50 (β1-adrenergic receptor; [3]): 10 to 100 nM; EC50 (β2 adrenergic receptor; [6]): < 10 nM
CC(C)(C)NC[C@H](O)c1cccc(-n2cccc2)n1 [Compound 03-123]	–	< 10 nM	< 10 nM	Average pEC50 [Receptor subtype: B1-AR; Cell type: CHO-K1 (HitHunter)] (β1-adrenergic receptor; CHO-K1 (HitHunter)): A (A > 8); EC50 (β1-adrenergic receptor; [3]): < 10 nM; EC50 (β2 adrenergic receptor; [6]): < 10 nM
CNc1cccc([C@H](O)CNC(C)(C)C)n1 [Compound 03-142]	> 1000 nM	> 1000 nM	100 to 1000 nM	EC50 (β1-adrenergic receptor; [3]): > 1000 nM; EC50 (β2 adrenergic receptor; [6]): 100 to 1000 nM
CN(C)c1cccc([C@@H](O)CNC(C)(C)C)n1 [Compound 03-153]	10 to 100 nM	10 to 100 nM	< 10 nM	EC50 (β1-adrenergic receptor; [3]): 10 to 100 nM; EC50 (β2 adrenergic receptor; [6]): < 10 nM
CC(C)(C)NC[C@H](O)c1cccc(C2=N[C@H](C(=O)O)CS2)n1 [Compound 03-246]	> 1000 nM	–	> 1000 nM	–
Cc1cnccc1[C@@H](O)CNC(C)(C)C [Compound 03-247, (R)-2-(tert-butylamino)-1-(3-methylpyridin-4-yl)ethan-1-ol]	> 1000 nM	–	> 1000 nM	–
CC(C)(C)NC[C@@H](O)c1cccc(NC2CC2)n1 [Compound 03-250]	> 1000 nM	–	100 to 1000 nM	–

Structure (SMILES)	EC50 (β1-adrenergic receptor; [2])	EC50 [1, 4]	EC50 (β2 adrenergic receptor; [5])	also measured
CNCc1cccc([C@@H](O)CNC(C)(C)C)n1 [Compound 03-252]	> 1000 nM	–	> 1000 nM	–
CNCc1cccc([C@@H](O)CN[C@H](C)Cc2ccc(OC)cc2)n1 [Compound 03-254]	> 1000 nM	–	100 to 1000 nM	–
Cc1ncc(F)cc1[C@@H](O)CNC(C)(C)C [Compound 03-258]	100 to 1000 nM	–	10 to 100 nM	–
COc1ccc([C@@H](O)CNC(C)(C)C)c(C)n1 [Compound 03-259]	10 to 100 nM	–	< 10 nM	–
COc1ccc(C[C@@H](C)NC[C@H](O)c2cc(F)cnc2C)cc1 [Compound 03-260]	–	–	–	EC50 (β1-adrenergic receptor; [7]): > 1000 nM; EC50 (β2 adrenergic receptor; [8]): < 10 nM
Cc1ncc([C@@H](O)CNC(C)(C)C)c(C)n1 [Compound 03-261]	> 1000 nM	–	100 to 1000 nM	–
CCNc1cccc([C@@H](O)CNC(C)(C)C)n1 [Compound 03-262]	10 to 100 nM	–	< 10 nM	–
CC(C)(C)NC[C@H](O)c1cccc(NC2CC(F)(F)C2)n1 [Compound 03-263]	10 to 100 nM	–	< 10 nM	–
CC(C)(C)NC[C@H](O)c1cccc(NC2(C)CC2)n1 [Compound 03-264]	10 to 100 nM	–	< 10 nM	–
COc1ccc(C[C@@H](C)NC[C@H](O)c2cccc(C3CCCC3)n2)cc1 [Compound 03-265]	10 to 100 nM	–	< 10 nM	–
CC(C)(C)NC[C@H](O)c1cccc(NCC(F)(F)F)n1 [Compound 03-266]	< 10 nM	–	< 10 nM	–
Cc1nc(C2CC2)ccc1[C@@H](O)CNC(C)(C)C [Compound 03-268]	10 to 100 nM	–	< 10 nM	–
COc1ccc(C[C@@H](C)NC[C@H](O)c2ccc(C3CC3)nc2C)cc1 [Compound 03-269]	–	–	–	Average pEC50 [Receptor subtype: B1-AR; Cell type: CHO-K1 (HitHunter)] (β1-adrenergic receptor; CHO-K1 (HitHunter)): B (B = 8-7); Average pEC50 [Receptor subtype: B2-AR; Cell type: CHO-K1 (HitHunter)] (β2 adrenergic receptor; CHO-K1 (HitHunter)): A (A > 8)
COc1ccc(C[C@@H](C)NC[C@H](O)c2cnc(C)nc2C)cc1 [Compound 03-270]	–	–	–	EC50 (β1-adrenergic receptor; [7]): > 1000 nM; EC50 (β2 adrenergic receptor; [8]): 10 to 100 nM
COc1ccc(C[C@@H](C)NC[C@H](O)c2cc(Cl)cnc2C)cc1 [Compound 03-271]	100 to 1000 nM	–	10 to 100 nM	–
CC(C)(C)NC[C@@H](O)c1cccc(OC(C)(C)C)n1 [Compound 03-273]	> 1000 nM	–	100 to 1000 nM	–
Cc1nc(NC2CC2)ccc1[C@@H](O)CNC(C)(C)C [Compound 03-274]	> 1000 nM	–	10 to 100 nM	–
COc1ccc(C[C@@H](C)NC[C@H](O)c2ccc(NC3CC3)nc2C)cc1 [Compound 03-275]	–	–	–	EC50 (β1-adrenergic receptor; [7]): > 1000 nM; EC50 (β2 adrenergic receptor; [8]): 10 to 100 nM
CNc1ccc([C@@H](O)CNC(C)(C)C)c(C)n1 [Compound 03-276]	100 to 1000 nM	–	10 to 100 nM	–
CNc1ccc([C@@H](O)CN[C@H](C)Cc2ccc(OC)cc2)c(C)n1 [Compound 03-277]	–	–	–	EC50 (β1-adrenergic receptor; [7]): > 1000 nM; EC50 (β2 adrenergic receptor; [8]): < 10 nM
[2H]C([2H])([2H])C(NCC(O)c1cccnc1C)(C([2H])([2H])[2H])C([2H])([2H])[2H] (centres unmarked) [Compound 03-278]	100 to 1000 nM	–	< 10 nM	–
[2H]C([2H])([2H])Nc1cccc([C@@H](O)CNC(C)(C)C)n1 [Compound 03-279]	> 1000 nM	–	100 to 1000 nM	–
CC(C)(C)NC[C@H](O)c1cccc(C(C)(C)CN)n1 [Compound 03-280]	> 1000 nM	–	> 1000 nM	–
